Data on one compound can be found in ChEMBL document CHEMBL5584244, “Discovery of novel pyrrolo[2,1-c][1,4]benzodiazepine-3,11-dione (PBD) derivatives as selective HDAC6 inhibitors for the efficient treatment of idiopathic pulmonary fibrosis (IPF) in vitro and in vivo” (Eur J Med Chem, 2024).

Data set [1] can be described thus: Half life in human plasma at 2 uM by LC-MS/MS analysis. In kind it is ADME, cell-free.
Data set [2] deals with Mus musculus. The data set is described as follows: Anti-pulmonary fibrosis activity in bleomycin-induced C57BL/6 mouse model of pulmonary fibrosis assessed as decrease in thickening of the alveolar wall in lung at 50 to 100 mg/kg, ip for 3 weeks by Masson trichrome staining based microscopic analysis. In kind it is functional, organism-based. The following applies: dose 50-100 mg/kg.

Data set [3] deals with Mus musculus. Nature of the data set: Anti-pulmonary fibrosis activity in bleomycin-induced ip dosed C57BL/6 mouse model of pulmonary fibrosis assessed as inhibition of Smad3 protein phosphorylation level in lung at for 3 weeks by immunohistochemical analysis. Type of data set: functional, organism-based. Particulars: dose 50-100 mg/kg.
Data set [4] has as its system Mus musculus. The data set is described as follows: Anti-pulmonary fibrosis activity in bleomycin-induced C57BL/6 mouse model of pulmonary fibrosis assessed as recovering mental state at 50 to 100 mg/kg, ip for 3 weeks. In kind it is functional, organism-based. Particulars: dose 50-100 mg/kg.
The subject of data set [5] is Mus musculus. Nature of the data set: Anti-pulmonary fibrosis activity in bleomycin-induced C57BL/6 mouse model of pulmonary fibrosis assessed as decrease in disturbance of alveolar structure in lung at 50 to 100 mg/kg, ip for 3 weeks by H and E staining based fluorescence microscopic analysis. Type of data set: functional, organism-based. Particulars: dose 50-100 mg/kg.

Data set [6] has as its system Mus musculus. Nature of the data set: Anti-pulmonary fibrosis activity in bleomycin-induced C57BL/6 mouse model of pulmonary fibrosis assessed as decrease in collagen level in lung at 50 to 100 mg/kg, ip for 3 weeks by Masson trichrome staining based microscopic analysis. Type of data set: functional, organism-based. Particulars: dose 50-100 mg/kg.
The test system of data set [7] is HELF. Nature of the data set: Anti-pulmonary fibrosis activity against TGF-beta1-induced HELF cells assessed as reduction in COL1A1 protein expression incubated for 48 hrs by Western blot analysis. In kind it is functional, cell-based. Particulars: Homo sapiens, dose 2.5-10 µM. For orientation: Immunoblotting shows a protein as a band on a membrane.
Data set [8] has as its system Mus musculus. Nature of the data set: Anti-pulmonary fibrosis activity in bleomycin-induced C57BL/6 mouse model of pulmonary fibrosis assessed as decrease in thickening of the alveolar wall in lung at 50 to 100 mg/kg, ip for 3 weeks by H and E staining based fluorescence microscopic analysis. Particulars: dose 50-100 mg/kg. In kind it is functional, organism-based.

In data set [9] the target is Mothers against decapentaplegic homolog 2 (Homo sapiens) (UniProt Q15796). Nature of the data set: Inhibition of TGF-beta1-induced Smad2 protein phosphorylation level in HELF cells incubated for 48 hrs by Western blot analysis. Type of data set: cell-based. Particulars: dose 2.5-10 µM.
Sequence of Mothers against decapentaplegic homolog 2 (Homo sapiens) (Q15796 whole entry): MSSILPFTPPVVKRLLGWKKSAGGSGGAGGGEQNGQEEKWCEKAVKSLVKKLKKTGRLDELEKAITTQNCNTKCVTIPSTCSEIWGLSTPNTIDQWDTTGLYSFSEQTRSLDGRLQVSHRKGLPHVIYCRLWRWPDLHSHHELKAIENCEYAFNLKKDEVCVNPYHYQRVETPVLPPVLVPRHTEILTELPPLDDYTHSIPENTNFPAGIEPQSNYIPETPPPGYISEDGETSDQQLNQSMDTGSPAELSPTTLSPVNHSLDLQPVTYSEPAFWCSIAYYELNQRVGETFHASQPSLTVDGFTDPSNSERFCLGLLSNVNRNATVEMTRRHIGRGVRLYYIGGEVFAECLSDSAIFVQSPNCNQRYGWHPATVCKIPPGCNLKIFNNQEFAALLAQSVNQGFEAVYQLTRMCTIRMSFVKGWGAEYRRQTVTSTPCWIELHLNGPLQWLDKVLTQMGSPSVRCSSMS
For data set [10], the system named is Mus musculus. Nature of the data set: Anti-pulmonary fibrosis activity in bleomycin-induced C57BL/6 mouse model of pulmonary fibrosis assessed as increase in body weight at 50 to 100 mg/kg, ip for 3 weeks. The following applies: dose 50-100 mg/kg. In kind it is functional, organism-based.
A short description of data set [11]: Intrinsic clearance in human liver at 100 uM incubated upto 60 mins by LC-MS/MS analysis. In kind it is ADME, tissue-based. The following applies: read-out: CLH.
Data set [12] has as its target Histone deacetylase 4 (Homo sapiens, UniProt P56524). Nature of the data set: Inhibition of recombinant human HDAC4 using Boc-Lys (Ac)-AMC as substrate incubated for 120 mins by fluorescence analysis.
Data set [13] concerns the target T1, Polyamine deacetylase HDAC10 (Homo sapiens, UniProt Q969S8).
T1 sequence (Q969S8 whole entry): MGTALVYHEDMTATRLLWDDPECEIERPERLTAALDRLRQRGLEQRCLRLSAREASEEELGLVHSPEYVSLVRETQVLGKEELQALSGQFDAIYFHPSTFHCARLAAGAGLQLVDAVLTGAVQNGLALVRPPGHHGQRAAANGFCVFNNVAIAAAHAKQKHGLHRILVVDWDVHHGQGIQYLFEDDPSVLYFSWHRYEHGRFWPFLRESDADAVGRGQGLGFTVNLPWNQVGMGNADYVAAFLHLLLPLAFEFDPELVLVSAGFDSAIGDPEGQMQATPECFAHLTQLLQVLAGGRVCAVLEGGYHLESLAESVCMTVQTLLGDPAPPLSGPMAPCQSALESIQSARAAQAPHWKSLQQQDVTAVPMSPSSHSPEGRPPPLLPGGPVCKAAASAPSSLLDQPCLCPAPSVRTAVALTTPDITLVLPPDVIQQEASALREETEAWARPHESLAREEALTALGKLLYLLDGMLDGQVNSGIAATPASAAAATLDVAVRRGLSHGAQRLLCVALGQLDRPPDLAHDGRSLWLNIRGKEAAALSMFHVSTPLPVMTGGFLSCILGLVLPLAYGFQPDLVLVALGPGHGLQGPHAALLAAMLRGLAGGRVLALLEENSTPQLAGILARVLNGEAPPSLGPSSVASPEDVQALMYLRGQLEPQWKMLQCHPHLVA
Nature of the data set: Inhibition of N-terminal FLAG-tagged recombinant human HDAC10 (2 to 631 residues) expressed in baculovirus sf9 insect cells expression system using Boc-Lys (Ac)-AMC as substrate incubated for 120 mins by fluorescence analysis.

For data set [14], the target named is T2, Protein deacetylase HDAC6 (Homo sapiens, UniProt Q9UBN7).
T2 sequence (Q9UBN7 whole entry): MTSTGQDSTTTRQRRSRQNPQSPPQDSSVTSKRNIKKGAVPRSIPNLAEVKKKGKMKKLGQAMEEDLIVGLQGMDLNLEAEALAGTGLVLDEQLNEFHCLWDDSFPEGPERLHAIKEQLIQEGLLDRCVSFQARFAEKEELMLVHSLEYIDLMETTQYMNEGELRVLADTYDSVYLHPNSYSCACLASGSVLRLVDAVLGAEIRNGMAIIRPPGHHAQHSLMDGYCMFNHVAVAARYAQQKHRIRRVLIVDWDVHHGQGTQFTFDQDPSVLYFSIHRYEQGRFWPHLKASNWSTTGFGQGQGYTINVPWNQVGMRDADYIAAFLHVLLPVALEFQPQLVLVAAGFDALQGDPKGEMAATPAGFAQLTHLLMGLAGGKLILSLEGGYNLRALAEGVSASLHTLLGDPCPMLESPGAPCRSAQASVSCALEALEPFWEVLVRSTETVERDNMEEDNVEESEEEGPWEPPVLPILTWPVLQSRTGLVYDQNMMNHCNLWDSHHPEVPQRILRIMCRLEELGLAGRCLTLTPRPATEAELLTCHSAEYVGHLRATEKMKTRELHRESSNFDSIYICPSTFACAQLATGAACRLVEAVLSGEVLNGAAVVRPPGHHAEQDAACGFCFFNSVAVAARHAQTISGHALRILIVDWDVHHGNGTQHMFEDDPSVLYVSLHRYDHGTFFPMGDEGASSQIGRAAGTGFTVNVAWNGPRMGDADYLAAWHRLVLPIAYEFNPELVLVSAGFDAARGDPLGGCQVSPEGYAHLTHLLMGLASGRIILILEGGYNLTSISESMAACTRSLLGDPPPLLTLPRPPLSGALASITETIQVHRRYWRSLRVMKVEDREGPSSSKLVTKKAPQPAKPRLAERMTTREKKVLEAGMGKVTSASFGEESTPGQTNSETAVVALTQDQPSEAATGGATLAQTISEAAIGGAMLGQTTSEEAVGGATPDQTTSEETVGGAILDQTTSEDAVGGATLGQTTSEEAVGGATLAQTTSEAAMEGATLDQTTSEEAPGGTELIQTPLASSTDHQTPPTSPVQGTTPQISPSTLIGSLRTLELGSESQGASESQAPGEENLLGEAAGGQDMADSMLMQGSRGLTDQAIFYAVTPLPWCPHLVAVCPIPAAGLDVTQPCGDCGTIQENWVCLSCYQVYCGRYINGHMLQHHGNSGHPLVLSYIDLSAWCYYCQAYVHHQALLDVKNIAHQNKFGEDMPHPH
The data set is described as follows: Inhibition of recombinant human full length HDAC6 using Boc-Lys (Ac)-AMC as substrate incubated for 120 mins by fluorescence analysis.

Active and inactive are the calls of the source.

Sequence of Histone deacetylase 4 (P56524 whole entry): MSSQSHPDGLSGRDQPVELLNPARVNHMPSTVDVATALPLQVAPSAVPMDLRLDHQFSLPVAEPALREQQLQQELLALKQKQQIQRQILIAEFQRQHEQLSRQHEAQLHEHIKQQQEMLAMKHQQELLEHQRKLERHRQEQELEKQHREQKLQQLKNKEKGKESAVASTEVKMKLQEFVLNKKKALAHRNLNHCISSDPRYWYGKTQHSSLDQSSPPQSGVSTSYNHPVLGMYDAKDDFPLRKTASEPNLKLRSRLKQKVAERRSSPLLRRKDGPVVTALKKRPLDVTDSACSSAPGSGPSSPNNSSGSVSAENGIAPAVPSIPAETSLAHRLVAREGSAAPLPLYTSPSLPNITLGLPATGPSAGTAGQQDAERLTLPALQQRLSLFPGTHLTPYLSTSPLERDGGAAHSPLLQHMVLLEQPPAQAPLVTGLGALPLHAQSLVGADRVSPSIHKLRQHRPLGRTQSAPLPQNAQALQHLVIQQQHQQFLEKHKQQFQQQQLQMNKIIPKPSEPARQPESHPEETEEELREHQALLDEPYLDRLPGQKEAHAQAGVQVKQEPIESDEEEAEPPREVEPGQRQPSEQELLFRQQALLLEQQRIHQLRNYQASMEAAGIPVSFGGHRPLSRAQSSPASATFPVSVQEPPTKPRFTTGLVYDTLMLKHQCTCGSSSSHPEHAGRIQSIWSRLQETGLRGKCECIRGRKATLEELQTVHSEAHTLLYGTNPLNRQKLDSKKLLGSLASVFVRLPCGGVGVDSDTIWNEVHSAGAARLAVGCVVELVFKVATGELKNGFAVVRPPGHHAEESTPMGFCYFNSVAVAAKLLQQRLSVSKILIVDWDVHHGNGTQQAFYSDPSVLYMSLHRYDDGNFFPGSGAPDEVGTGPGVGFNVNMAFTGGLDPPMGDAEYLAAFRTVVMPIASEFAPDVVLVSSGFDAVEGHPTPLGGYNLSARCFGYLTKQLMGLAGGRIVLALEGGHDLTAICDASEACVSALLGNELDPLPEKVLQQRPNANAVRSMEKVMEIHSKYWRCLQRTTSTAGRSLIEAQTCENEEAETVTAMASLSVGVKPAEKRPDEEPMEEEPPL

As for `CC(=O)O.O=C(NO)c1ccc(CN2C(=O)[C@@H]3CCCN3Cc3ccccc32)cc1`, the half-life (in general, the time needed for the level to fall by half in the phase considered) at 2 µM in [1] is > 4.82 h. Also, the result in data set [2], in data set [6] and in [8] was inactive. The inhibition entry in data set [3] and in data set [9] was “Dose-Dependent Effect” in each case. Also, the result in [4], in data set [5] and in data set [10] was Active. The Activity entry in data set [7] is “Dose-Dependent Effect”. Also, in data set [11], the CLint scaled at 100 µM was < 8.6 mL/min/kg. For the same compound, the figures for the IC50 in [12], in data set [13] and in data set [14] were 847 nM, 1320 nM and 8.97 nM, respectively.
